Reference: patent US9604980B2, “Substituted pyrimidinyl and pyridinyl-pyrrolopyridinones, process for their preparation and their use as kinase inhibitors” (NERVIANO MEDICAL SCIENCES S.r.l, priority 2012, dated 2017)
In brackets after ≈: the same amount, converted by molar mass.

Key:
[1] = High-Throughput Solubility Assay; assay type: physicochemical; conditions: kinetic from dmso stock; pH 7, aqueous potassium phosphate buffer, nominal 200 μM, 24 h at room temperature
Experimental: High-Throughput Solubility Assay
A nominal 200 μM suspensions/solutions of a compound of formula (I) in aqueous potassium phosphate buffer at pH=7 and aqueous citric acid buffer at pH=3 were prepared on a “Multiscreen-HTS”, 0.2 μm filter plate (Millipore, Billerica, Mass.). These solutions were stirred for 10 min and stored for 24 h at room temperature to pre-saturate the membrane filter and to reach a “pseudo-thermodynamic solubility”. Then the plate was put on a 500 μL 96 multiwell plate containing 200 μL of acetonitrile in each well and centrifuged at 2000 rpm for 5 minutes. The so obtained solutions were then analyzed simultaneously by HPLC-UV with standard solutions for quantification.

[2] = test system: A2780 ovarian carcinoma cells; assay: In Vitro Cell Proliferation Assay (A2780); assay type: cell-based; conditions: Homo sapiens, 72 hours exposure, CellTiterGlo
Experimental: (§1) In Vitro Cell Proliferation Assay
(§2) To evaluate the antiproliferative activity of a compound of formula (I) the following human cell lines were used: A2780 ovarian and MCF-7 breast carcinoma; TT and MZ-CRC-1 medullary thyroid carcinoma, harboring a mutated RET-C634W and RET-M918T receptor respectively, LC-2/ad Non Small Cell Lung Carcinoma, expressing the CCDC6-RET fusion gene product. Exponentially growing cells were seeded and incubated at 37° C. in a humidified 5% C02 atmosphere using appropriate medium supplemented with 10% Fetal Bovine Serum. 24 hours following cell plating, scalar doses of the compounds dissolved in 0.1% DMSO were added to the medium and cells were exposed to drugs for either 72 hours (MCF-7 and A2780) or 144 hours (TT, MZ-CRC-1 and LC-2/ad), according to their different proliferation rate. At the end of treatment, cell proliferation was determined by an intracellular ATP monitoring system (CellTiterGlo—Promega), following manufacturer's instructions, and using an Envision instrument (PerkinElmer) as reader. Data obtained from compound versus vehicle treated cells were compared using Assay Explorer (Symyx Technologies Inc) software. IC50 values were calculated using sigmoidal interpolation curve fitting.

[3] = test system: MCF-7 breast carcinoma cells; assay: In Vitro Cell Proliferation Assay (MCF-7); assay type: cell-based; conditions: Homo sapiens, MCF7; 72 hours exposure, CellTiterGlo
Experimental: as §1, §2

[4] = test system: TT medullary thyroid carcinoma cells, harboring a mutated RET-C634W receptor; assay: In Vitro Cell Proliferation Assay (TT); assay type: cell-based; conditions: Homo sapiens; 144 hours exposure, CellTiterGlo
Experimental: as §1, §2

[5] = test system: MZ-CRC-1 medullary thyroid carcinoma cells, harboring a mutated RET-M918T receptor; assay: In Vitro Cell Proliferation Assay (MZ-CRC-1); assay type: cell-based; conditions: Homo sapiens, 144 hours exposure, CellTiterGlo
Experimental: as §1, §2

[6] = test system: LC-2/ad Non Small Cell Lung Carcinoma cells, expressing the CCDC6-RET fusion gene product; assay: In Vitro Cell Proliferation Assay (LC-2/ad); assay type: cell-based; conditions: Homo sapiens, 144 hours exposure, CellTiterGlo
Experimental: as §1, §2

SMILES | solubility at 24 h [1] [µM] | IC50 [2] [nM] | IC50 [3] [nM] | IC50 [4] [µM] | IC50 [5] [µM] | IC50 [6] [µM]
CCN1CCN(Cc2ccc(NC(=O)Cc3cccc(C#Cc4cnc(N)nc4-c4cc5c(n4C)CCNC5=O)c3)cc2C(F)(F)F)CC1 [Cmpd 77, 2-{3-[2-Amino-4-(1-methyl-4-oxo-4,5,6,7-tetrahydro-1H-pyrrolo[3,2-c]pyridin-2-yl)-pyrimidin-5-ylethynyl]-phenyl}-N-[4-(4-ethyl-piperazin-1-ylmethyl)-3-trifluoromethyl-phenyl]-acetamide] | 23 (≈ 15.4 µg/mL) | 2820 | 6650 | 0.002 | 0.023 | 0.003
CCN1CCN(Cc2ccc(NC(=O)Cc3cccc(C#Cc4cnc(NC)nc4-c4cc5c(n4C)CCNC5=O)c3)cc2C(F)(F)F)CC1 [Cmpd 78, N-[4-(4-Ethyl-piperazin-1-ylmethyl)-3-trifluoromethyl-phenyl]-2-{3-[2-methylamino-4-(1-methyl-4-oxo-4,5,6,7-tetrahydro-1H-pyrrolo[3,2-c]pyridin-2-yl)-pyrimidin-5-ylethynyl]-phenyl}-acetamide] | 1.4 (≈ 0.959 µg/mL) | 2220 | 2310 | 0.007 | 0.026 | 0.014
CNc1ncc(C#Cc2cccc(CC(=O)Nc3ccc(CN4CCN(C(C)C)CC4)c(C(F)(F)F)c3)c2)c(-c2cc3c(n2C)CCNC3=O)n1 [Cmpd 176, N-[4-(4-Isopropyl-piperazin-1-ylmethyl)-3-trifluoromethyl-phenyl]-2-{3-[2-methylamino-4-(1-methyl-4-oxo-4,5,6,7-tetrahydro-1H-pyrrolo[3,2-c]pyridin-2-yl)-pyrimidin-5-ylethynyl]-phenyl}-acetamide] | 7.6 (≈ 5.31 µg/mL) | 3830 | – | 0.014 | 0.023 | 0.02
CNc1ncc(C#Cc2cc(CC(=O)Nc3ccc(CN4CCN(C)CC4)c(C(F)(F)F)c3)ccc2F)c(-c2cc3c(n2C)CCNC3=O)n1 [Cmpd 190, 2-{4-Fluoro-3-[2-methylamino-4-(1-methyl-4-oxo-4,5,6,7-tetrahydro-1H-pyrrolo[3,2-c]pyridin-2-yl)-pyrimidin-5-ylethynyl]-phenyl}-N-[4-(4-methyl-piperazin-1-ylmethyl)-3-trifluoromethyl-phenyl]-acetamide] | 2.9 (≈ 2 µg/mL) | 2310 | – | 0.008 | 0.039 | 0.051

Compounds with a lower IC50 [2], results first:

solubility at 24 h [1] [µM] | IC50 [2] [nM] | IC50 [3] [nM] | IC50 [4] [µM] | IC50 [5] [µM] | IC50 [6] [µM] | SMILES
6.5 (≈ 4.37 µg/mL) | 1760 | 4780 | 0.002 | 0.074 | 0.038 | CCN1CCN(Cc2ccc(NC(=O)Nc3cccc(C#Cc4cnc(N)nc4-c4cc5c(n4C)CCNC5=O)c3)cc2C(F)(F)F)CC1 [Cmpd 8, 1-{3-[2-Amino-4-(1-methyl-4-oxo-4,5,6,7-tetrahydro-1H-pyrrolo[3,2-c]pyridin-2-yl)-pyrimidin-5-ylethynyl]-phenyl}-3-[4-(4-ethyl-piperazin-1-ylmethyl)-3-trifluoromethyl-phenyl]-urea]
3.5 (≈ 2.35 µg/mL) | 1150 | – | 0.005 | 0.015 | 0.01 | CNc1ncc(C#Cc2cccc(CC(=O)Nc3ccc(CN4CCN(C)CC4)c(C(F)(F)F)c3)c2)c(-c2cc3c(n2C)CCNC3=O)n1 [Cmpd 174, 2-{3-[2-Methylamino-4-(1-methyl-4-oxo-4,5,6,7-tetrahydro-1H-pyrrolo[3,2-c]pyridin-2-yl)-pyrimidin-5-ylethynyl]-phenyl}-N-[4-(4-methyl-piperazin-1-ylmethyl)-3-trifluoromethyl-phenyl]-acetamide]
< 1 | 910 | – | 0.016 | 0.039 | 0.015 | CCNc1ncc(C#Cc2cccc(CC(=O)Nc3ccc(CN4CCN(C)CC4)c(C(F)(F)F)c3)c2)c(-c2cc3c(n2C)CCNC3=O)n1 [Cmpd 193, 2-{3-[2-Ethylamino-4-(1-methyl-4-oxo-4,5,6,7-tetrahydro-1H-pyrrolo[3,2-c]pyridin-2-yl)-pyrimidin-5-ylethynyl]-phenyl}-N-[4-(4-methyl-piperazin-1-ylmethyl)-3-trifluoromethyl-phenyl]-acetamide]
26.9 (≈ 17.7 µg/mL) | 85 | 1840 | 0.0005 | 0.004 | 0.004 | CCN1CCN(Cc2ccc(NC(=O)c3cccc(C#Cc4cnc(N)nc4-c4cc5c(n4C)CCNC5=O)c3)cc2C(F)(F)F)CC1 [Cmpd 48, 3-[2-Amino-4-(1-methyl-4-oxo-4,5,6,7-tetrahydro-1H-pyrrolo[3,2-c]pyridin-2-yl)-pyrimidin-5-ylethynyl]-N-[4-(4-ethyl-piperazin-1-ylmethyl)-3-trifluoromethyl-phenyl]-benzamide]
